Measured values published in paper PMC10070484, “Structure and mechanism of oxalate transporter OxlT in an oxalate-degrading bacterium in the gut microbiota” (Nature Communications, 2023).

Key:
Experiment in all cases: GFP thermal shift (GFP-TS)
Format in all cases: binding
Conditions in all cases: 3 mM potassium oxalate; crude DDM-solubilised OxlT-GFPuv from E. coli membranes; 300 mM potassium acetate, pH 7.0
OxlT [1] = target: T1, OxlT (Oxalobacter formigenes, UniProt Q51330, W352A)
T1 construct: full-length; C-terminal nona-His tag from E. coli XL3 (crystal, purified); C-terminal GFPuv fusion from E. coli BL21(DE3) in DDM (GFP-TS); pRSF-OxlT for transport; monomer

OxlT [2] = target: T2, OxlT (Oxalobacter formigenes, UniProt Q51330)
T2 construct: full-length; C-terminal nona-His tag from E. coli XL3 (crystal, purified); C-terminal GFPuv fusion from E. coli BL21(DE3) in DDM (GFP-TS); pRSF-OxlT for transport; monomer
T2 sequence (Q51330 1-418): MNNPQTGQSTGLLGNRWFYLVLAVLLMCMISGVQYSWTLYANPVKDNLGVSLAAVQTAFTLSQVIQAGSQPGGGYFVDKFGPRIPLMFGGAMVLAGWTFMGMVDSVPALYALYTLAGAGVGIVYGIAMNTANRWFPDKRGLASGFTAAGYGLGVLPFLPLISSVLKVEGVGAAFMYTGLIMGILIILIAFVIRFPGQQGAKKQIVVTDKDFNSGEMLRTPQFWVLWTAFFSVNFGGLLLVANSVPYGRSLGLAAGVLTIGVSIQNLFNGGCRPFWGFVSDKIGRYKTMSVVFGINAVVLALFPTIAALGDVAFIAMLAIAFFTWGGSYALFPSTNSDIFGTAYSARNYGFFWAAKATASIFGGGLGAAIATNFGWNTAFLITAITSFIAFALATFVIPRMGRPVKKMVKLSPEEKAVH

OxlT [3] = target: T3, OxlT (Oxalobacter formigenes, UniProt Q51330, K355Q)
T3 construct: full-length; C-terminal nona-His tag from E. coli XL3 (crystal, purified); C-terminal GFPuv fusion from E. coli BL21(DE3) in DDM (GFP-TS); pRSF-OxlT for transport; monomer

OxlT [4] = target: T4, OxlT (Oxalobacter formigenes, UniProt Q51330, Q34A)
T4 construct: full-length; C-terminal nona-His tag from E. coli XL3 (crystal, purified); C-terminal GFPuv fusion from E. coli BL21(DE3) in DDM (GFP-TS); pRSF-OxlT for transport; monomer

OxlT [5] = target: T5, OxlT (Oxalobacter formigenes, UniProt Q51330, Y124A)
T5 construct: full-length; C-terminal nona-His tag from E. coli XL3 (crystal, purified); C-terminal GFPuv fusion from E. coli BL21(DE3) in DDM (GFP-TS); pRSF-OxlT for transport; monomer

OxlT [6] = target: T6, OxlT (Oxalobacter formigenes, UniProt Q51330, Y328A)
T6 construct: full-length; C-terminal nona-His tag from E. coli XL3 (crystal, purified); C-terminal GFPuv fusion from E. coli BL21(DE3) in DDM (GFP-TS); pRSF-OxlT for transport; monomer

OxlT [7] = target: T7, OxlT (Oxalobacter formigenes, UniProt Q51330, R272A)
T7 construct: full-length; C-terminal nona-His tag from E. coli XL3 (crystal, purified); C-terminal GFPuv fusion from E. coli BL21(DE3) in DDM (GFP-TS); pRSF-OxlT for transport; monomer

OxlT [8] = target: T8, OxlT (Oxalobacter formigenes, UniProt Q51330, Y35A)
T8 construct: full-length; C-terminal nona-His tag from E. coli XL3 (crystal, purified); C-terminal GFPuv fusion from E. coli BL21(DE3) in DDM (GFP-TS); pRSF-OxlT for transport; monomer

OxlT [9] = target: T9, OxlT (Oxalobacter formigenes, UniProt Q51330, W324A)
T9 construct: full-length; C-terminal nona-His tag from E. coli XL3 (crystal, purified); C-terminal GFPuv fusion from E. coli BL21(DE3) in DDM (GFP-TS); pRSF-OxlT for transport; monomer

OxlT [10] = target: T10, OxlT (Oxalobacter formigenes, UniProt Q51330, Y150A)
T10 construct: full-length; C-terminal nona-His tag from E. coli XL3 (crystal, purified); C-terminal GFPuv fusion from E. coli BL21(DE3) in DDM (GFP-TS); pRSF-OxlT for transport; monomer

OxlT [11] = target: T11, OxlT (Oxalobacter formigenes, UniProt Q51330, N268A)
T11 construct: full-length; C-terminal nona-His tag from E. coli XL3 (crystal, purified); C-terminal GFPuv fusion from E. coli BL21(DE3) in DDM (GFP-TS); pRSF-OxlT for transport; monomer
T11 sequence (Q51330 whole entry N268A, the tested form may be a part): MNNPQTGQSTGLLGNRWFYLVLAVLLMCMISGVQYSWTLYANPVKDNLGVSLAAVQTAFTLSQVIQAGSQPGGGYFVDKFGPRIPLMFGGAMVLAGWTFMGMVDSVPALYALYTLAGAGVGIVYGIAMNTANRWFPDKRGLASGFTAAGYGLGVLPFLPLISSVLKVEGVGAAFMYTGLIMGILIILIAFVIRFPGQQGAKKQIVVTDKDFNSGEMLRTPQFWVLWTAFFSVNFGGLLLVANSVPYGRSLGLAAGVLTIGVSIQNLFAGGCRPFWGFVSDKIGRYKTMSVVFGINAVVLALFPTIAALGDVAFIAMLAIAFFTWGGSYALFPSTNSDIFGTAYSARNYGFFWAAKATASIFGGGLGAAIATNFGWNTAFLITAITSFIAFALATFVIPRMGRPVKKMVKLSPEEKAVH

T4 sequence (Q51330 whole entry Q34A, the tested form may be a part): as the sequence (Q51330 whole entry N268A, the tested form may be a part) above, with Q34A, A268N counted along it
T3 sequence (Q51330 whole entry K355Q, the tested form may be a part): as the sequence (Q51330 whole entry N268A, the tested form may be a part) above, with A268N, K355Q counted along it
T9 sequence (Q51330 whole entry W324A, the tested form may be a part): as the sequence (Q51330 whole entry N268A, the tested form may be a part) above, with A268N, W324A counted along it
T5 sequence (Q51330 whole entry Y124A, the tested form may be a part): as the sequence (Q51330 whole entry N268A, the tested form may be a part) above, with Y124A, A268N counted along it
T7 sequence (Q51330 whole entry R272A, the tested form may be a part): as the sequence (Q51330 whole entry N268A, the tested form may be a part) above, with A268N, R272A counted along it
T8 sequence (Q51330 whole entry Y35A, the tested form may be a part): as the sequence (Q51330 whole entry N268A, the tested form may be a part) above, with Y35A, A268N counted along it
T10 sequence (Q51330 whole entry Y150A, the tested form may be a part): as the sequence (Q51330 whole entry N268A, the tested form may be a part) above, with Y150A, A268N counted along it
T6 sequence (Q51330 whole entry Y328A, the tested form may be a part): as the sequence (Q51330 whole entry N268A, the tested form may be a part) above, with A268N, Y328A counted along it
T1 sequence (Q51330 whole entry W352A, the tested form may be a part): as the sequence (Q51330 whole entry N268A, the tested form may be a part) above, with A268N, W352A counted along it

Structure (SMILES): O=C(O)C(=O)O [oxalate]
- dTm (OxlT [1]): Y328A and W352A showed similar oxalate binding but reduced oxalate uptake activities
- dTm (OxlT [2]): In the GFP-TS assay, wild-type OxlT exhibited thermal stabilisation upon oxalate binding.
- dTm (OxlT [3]): reduced in the mutant OxlT proteins Q34A, Y35A, Y124A, Y150A, N268A, R272A, W324A and K355Q
- dTm (OxlT [4]): reduced in the mutant OxlT proteins Q34A, Y35A, Y124A, Y150A, N268A, R272A, W324A and K355Q
- dTm (OxlT [5]): reduced in the mutant OxlT proteins Q34A, Y35A, Y124A, Y150A, N268A, R272A, W324A and K355Q
- dTm (OxlT [6]): Y328A and W352A showed similar oxalate binding but reduced oxalate uptake activities
- dTm (OxlT [7]): reduced in the mutant OxlT proteins Q34A, Y35A, Y124A, Y150A, N268A, R272A, W324A and K355Q
- dTm (OxlT [8]): reduced in the mutant OxlT proteins Q34A, Y35A, Y124A, Y150A, N268A, R272A, W324A and K355Q
- dTm (OxlT [9]): reduced in the mutant OxlT proteins Q34A, Y35A, Y124A, Y150A, N268A, R272A, W324A and K355Q
- dTm (OxlT [10]): reduced in the mutant OxlT proteins Q34A, Y35A, Y124A, Y150A, N268A, R272A, W324A and K355Q
- dTm (OxlT [11]): reduced in the mutant OxlT proteins Q34A, Y35A, Y124A, Y150A, N268A, R272A, W324A and K355Q
